Consider six compounds from article PMC3601116, “Surfactant Protein D Modulates HIV Infection of Both T-Cells and Dendritic Cells” (PLoS ONE, 2013).

The target of test [1] is T1, Surfactant Protein D (SP-D) (Homo sapiens, UniProt P35247).
T1 construct: gene SFTPD; dodecamer (four trimeric units)
T1 sequence (P35247 21-375): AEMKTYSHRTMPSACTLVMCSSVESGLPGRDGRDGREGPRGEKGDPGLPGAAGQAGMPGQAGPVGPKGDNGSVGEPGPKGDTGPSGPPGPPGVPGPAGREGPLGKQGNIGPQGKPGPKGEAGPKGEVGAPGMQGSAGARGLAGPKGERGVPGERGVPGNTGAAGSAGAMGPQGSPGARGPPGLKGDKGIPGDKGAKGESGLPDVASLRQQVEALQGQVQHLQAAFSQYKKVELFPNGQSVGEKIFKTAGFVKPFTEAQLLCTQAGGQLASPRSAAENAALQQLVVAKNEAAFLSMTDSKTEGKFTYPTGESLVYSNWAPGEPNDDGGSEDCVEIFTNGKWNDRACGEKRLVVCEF
In words: SPR competition of SP-D ([…]) binding to immobilised biotinylated gp120 IIIB. The conditions noted are these: 5 mM CaCl2, SP-D in solution, lectin site (CRD), competes with gp120 glycans.

The target in test [2] is T1, Surfactant Protein D (SP-D). In words: SPR competition of inactivated HIV BaL particles binding to immobilised SP-D. The settings on record: pH 7.4, calcium, 25 C, lectin site (CRD), competes with HIV glycans.
For test [3], the target named is recombinant gp120 IIIB (HIV strain IIIB) (UniProt P04578). In words: ELISA; competition: gp120 IIIB (2 µg/mL) immobilised; biotinylated soluble DC-SIGN, biotinylated soluble CD4 or CVN added together with SP-D (0-40 µg/mL); absorbance without competitor taken as 100%. On the technique in general: An ELISA detects its analyte on a solid surface through an enzyme-linked reagent.

The term IC50 denotes the concentration that inhibits the measured activity by half.

As to `OC[C@H]1OC(O)[C@H](O)[C@@H](O)[C@H]1O` (stereo partly drawn) [D-galactose], the IC50 in test [1] (read-out: IC50) stood at 32.2 mM.

Compound `CC(=O)N[C@H]1C(O)O[C@H](CO)[C@@H](O)[C@@H]1O` (stereo partly drawn) [GlcNAc] yielded an IC50 in test [1] of 22.9 mM.

Turning to `OC[C@H]1OC(O)[C@H](O)[C@@H](O)[C@@H]1O` (stereo partly drawn) [glucose], in test [2], the IC50 stood at 5.4 mM.

In turn, `OC[C@H]1O[C@H](O[C@H]2[C@H](O)[C@@H](O)C(O)O[C@@H]2CO)[C@H](O)[C@@H](O)[C@@H]1O` (stereo partly drawn) [maltose] displayed a half-maximal inhibitory concentration (IC50) in test [1] of 6.5 mM.

In the case of `OC[C@H]1OC(O)[C@@H](O)[C@@H](O)[C@@H]1O` (stereo partly drawn) [mannose], the IC50 in test [1] (read-out: IC50) was determined as 7.8 mM.

For the compound “Surfactant Protein D (from UniProt P35247 21-375) (natural protein)”, in test [3], the maximum inhibition of sDC-SIGN binding to gp120 was found to be 80%.
